# Measured values: the supplement of paper PMC10307832
# What was measured:
# Assay in all cases: relative viability (nuclei count vs DMSO), 5 days (fraction); higher = more cells survive
# [1] = system: NCI-H2228
# Outline: (§1)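 Nuclei were stained with Hoechst during a one-step fixation (final 0.05% Triton X-100, 1% formaldehyde, 1 ug/ml Hoechst) carried out 5 days after dosing, then counted on 4× images. The cells, lung cancer lines in 1536-well plates, had been dosed by pin tool the day after seeding with one drug alone or a fixed anchor-drug dose plus five library-drug doses (not always all listed) in √10 steps. Relative viability is the nuclei count in treated wells divided by that in vehicle wells, and each value is the median of duplicate plates.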
# [2] = system: ABC-1
# Outline: as §1
# [3] = system: COR-L23
# Outline: as §1
# [4] = system: NCI-H1793
# Outline: as §1
# [5] = system: EMC-BAC-2
# Outline: as §1
# [6] = system: NCI-H2023
# Outline: as §1
# [7] = system: HCC-15
# Outline: as §1
# [8] = system: NCI-H2405
# Outline: as §1
# [9] = system: HCC-78
# Outline: as §1
# [10] = system: LC-2-ad
# Outline: as §1
# [11] = system: NCI-H2126
# Outline: as §1
structure (smiles),measurement,setting,value
Nc1ccn([C@@H]2O[C@H](CO)[C@@H](O)[C@@H]2O)c(=O)n1 [Cytarabine] + N=C(N)NC(=N)NCCc1ccccc1 [Phenformin] (partner 250 µM),relative viability,[1]; first compound 0.005 µM,0.25
same,relative viability,[1]; first compound 0.01581 µM,0.197
same,relative viability,[1]; first compound 0.05 µM,0.182
same,relative viability,[1]; first compound 0.1581 µM,0.118
same,relative viability,[1]; first compound 0.5 µM,0.112
same,relative viability,[2]; first compound 0.005 µM,0.238
same,relative viability,[2]; first compound 0.01581 µM,0.211
same,relative viability,[2]; first compound 0.05 µM,0.265
same,relative viability,[2]; first compound 0.1581 µM,0.223
same,relative viability,[2]; first compound 0.5 µM,0.174
same,relative viability,[3]; first compound 0.005 µM,0.328
same,relative viability,[3]; first compound 0.01581 µM,0.325
same,relative viability,[3]; first compound 0.05 µM,0.3
same,relative viability,[3]; first compound 0.1581 µM,0.146
same,relative viability,[3]; first compound 0.5 µM,0.137
same,relative viability,[4]; first compound 0.005 µM,0.359
same,relative viability,[4]; first compound 0.01581 µM,0.34
same,relative viability,[4]; first compound 0.05 µM,0.284
same,relative viability,[4]; first compound 0.1581 µM,0.251
same,relative viability,[4]; first compound 0.5 µM,0.216
same,relative viability,[5]; first compound 0.005 µM,0.418
same,relative viability,[5]; first compound 0.01581 µM,0.482
same,relative viability,[5]; first compound 0.05 µM,0.398
same,relative viability,[5]; first compound 0.1581 µM,0.268
same,relative viability,[5]; first compound 0.5 µM,0.196
same,relative viability,[6]; first compound 0.005 µM,0.287
same,relative viability,[6]; first compound 0.01581 µM,0.224
same,relative viability,[6]; first compound 0.05 µM,0.183
same,relative viability,[6]; first compound 0.1581 µM,0.0883
same,relative viability,[6]; first compound 0.5 µM,0.0962
same,relative viability,[7]; first compound 0.005 µM,0.454
same,relative viability,[7]; first compound 0.01581 µM,0.436
same,relative viability,[7]; first compound 0.05 µM,0.516
same,relative viability,[7]; first compound 0.1581 µM,0.349
same,relative viability,[7]; first compound 0.5 µM,0.31
same,relative viability,[8]; first compound 0.005 µM,0.387
same,relative viability,[8]; first compound 0.01581 µM,0.34
same,relative viability,[8]; first compound 0.05 µM,0.288
same,relative viability,[8]; first compound 0.1581 µM,0.238
same,relative viability,[8]; first compound 0.5 µM,0.258
same,relative viability,[9]; first compound 0.005 µM,0.8
same,relative viability,[9]; first compound 0.01581 µM,0.629
same,relative viability,[9]; first compound 0.05 µM,0.466
same,relative viability,[9]; first compound 0.1581 µM,0.363
same,relative viability,[9]; first compound 0.5 µM,0.366
same,relative viability,[10]; first compound 0.005 µM,0.454
same,relative viability,[10]; first compound 0.01581 µM,0.466
same,relative viability,[10]; first compound 0.05 µM,0.49
same,relative viability,[10]; first compound 0.1581 µM,0.344
same,relative viability,[10]; first compound 0.5 µM,0.261
same,relative viability,[11]; first compound 0.005 µM,0.472
same,relative viability,[11]; first compound 0.01581 µM,0.464
same,relative viability,[11]; first compound 0.05 µM,0.421
same,relative viability,[11]; first compound 0.1581 µM,0.277
same,relative viability,[11]; first compound 0.5 µM,0.271
